{
  "source": "paper PMC2920453",
  "about": "(Chemistry & biology, 2010)",
  "key": {"SNU-16 [1]": {"system": "SNU-16", "experiment": "Pro-survival signaling", "settings": "200 nM, 6 hours"}, "wild-type MCF10A cells": {"system": "wild-type MCF10A cells", "experiment": "Growth of wild-type MCF10A cells", "type": "cell-based"}, "Hec-1B cells": {"system": "Hec-1B cells", "experiment": "Endometrial carcinoma cell proliferation", "settings": "wild type FGFR2; 4 days"}, "H520": {"system": "H520", "experiment": "cells", "settings": "Homo sapiens, NCI-H520, 72 h"}, "wild-type Ba/F3 cells": {"system": "wild-type Ba/F3 cells", "experiment": "cells", "settings": "Mus musculus, BaF3, 48 h"}, "FLT1": {"biological_target": "FLT1 (Homo sapiens, UniProt P17948)", "sequence (P17948 27-1338)": "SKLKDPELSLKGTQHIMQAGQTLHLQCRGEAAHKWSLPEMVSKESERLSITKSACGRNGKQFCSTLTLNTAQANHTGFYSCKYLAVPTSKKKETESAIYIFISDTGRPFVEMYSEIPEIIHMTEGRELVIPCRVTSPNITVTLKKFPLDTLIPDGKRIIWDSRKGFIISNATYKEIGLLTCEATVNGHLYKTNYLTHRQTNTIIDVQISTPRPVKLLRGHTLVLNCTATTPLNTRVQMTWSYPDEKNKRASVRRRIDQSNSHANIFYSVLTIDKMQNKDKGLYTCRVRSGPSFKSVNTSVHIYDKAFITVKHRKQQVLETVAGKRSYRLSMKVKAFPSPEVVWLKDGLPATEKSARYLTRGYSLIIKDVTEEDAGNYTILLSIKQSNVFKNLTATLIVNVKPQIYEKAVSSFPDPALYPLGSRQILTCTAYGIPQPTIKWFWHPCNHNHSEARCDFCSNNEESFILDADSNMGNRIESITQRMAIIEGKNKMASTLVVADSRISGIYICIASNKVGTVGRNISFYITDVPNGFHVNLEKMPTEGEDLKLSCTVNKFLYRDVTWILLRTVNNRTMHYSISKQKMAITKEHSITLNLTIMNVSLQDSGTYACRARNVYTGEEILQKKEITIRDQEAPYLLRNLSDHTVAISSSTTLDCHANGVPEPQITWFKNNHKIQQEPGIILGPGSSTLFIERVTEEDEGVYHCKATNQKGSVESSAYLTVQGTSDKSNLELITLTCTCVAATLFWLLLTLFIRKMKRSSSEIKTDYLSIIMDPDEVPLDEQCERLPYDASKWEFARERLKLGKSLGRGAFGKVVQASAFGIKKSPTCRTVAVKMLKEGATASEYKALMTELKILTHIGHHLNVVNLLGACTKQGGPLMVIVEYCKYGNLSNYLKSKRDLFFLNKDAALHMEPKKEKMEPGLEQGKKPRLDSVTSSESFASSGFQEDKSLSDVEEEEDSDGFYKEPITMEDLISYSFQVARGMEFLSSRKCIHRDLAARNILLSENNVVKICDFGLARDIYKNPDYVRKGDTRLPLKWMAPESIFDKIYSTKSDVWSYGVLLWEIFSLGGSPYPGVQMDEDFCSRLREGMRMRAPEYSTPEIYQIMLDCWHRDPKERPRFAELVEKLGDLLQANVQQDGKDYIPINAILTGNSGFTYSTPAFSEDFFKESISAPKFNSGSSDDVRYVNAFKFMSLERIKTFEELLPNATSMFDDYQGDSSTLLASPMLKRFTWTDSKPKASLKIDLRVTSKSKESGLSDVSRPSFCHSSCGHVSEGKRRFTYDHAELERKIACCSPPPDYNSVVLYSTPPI", "experiment": "Z'-lyte kinase assay", "type": "biochemical"}, "KATO-III": {"system": "KATO-III", "experiment": "Pro-survival signaling", "settings": "200 nM, 6 hours"}, "G-401": {"system": "G-401", "experiment": "cells", "settings": "Homo sapiens, G-401, 72 h"}, "SBC-3 [2]": {"system": "SBC-3", "experiment": "cells", "settings": "Homo sapiens, SBC-3, 72 h"}, "VM-CUB1": {"system": "VM-CUB1", "experiment": "cells", "settings": "Homo sapiens, VM-CUB-1, 72 h"}, "JAR": {"system": "JAR", "experiment": "cells", "settings": "Homo sapiens, 72 h"}, "TOV-112D": {"system": "TOV-112D", "experiment": "cells", "settings": "Homo sapiens, TOV112D, 72 h"}, "G-402": {"system": "G-402", "experiment": "cells", "settings": "Homo sapiens, G-402, 72 h"}, "A2780 [3]": {"system": "A2780", "experiment": "cells", "settings": "Homo sapiens, A2780, 72 h"}, "A2780 [4]": {"system": "A2780", "experiment": "Survival pathways immunoblot", "settings": "200 nM, 6 hours"}, "FU97": {"system": "FU97", "experiment": "cells", "settings": "Homo sapiens, Fu97, 72 h"}, "SBC-3 [5]": {"system": "SBC-3", "experiment": "Survival pathways immunoblot", "settings": "200 nM, 6 hours"}, "SNU-16 [6]": {"system": "SNU-16", "experiment": "cells", "settings": "Homo sapiens, SNU-16, 72 h"}, "WT iFGFR1 MCF10A cells": {"system": "WT iFGFR1 MCF10A cells", "experiment": "iFGFR1-dependent MCF10A proliferation", "settings": "Homo sapiens, MCF-10A, 48 h"}, "PA-1": {"system": "PA-1", "experiment": "cells", "settings": "Homo sapiens, PA-1, 72 h"}, "[7]": {"system": "iFGFR1-activated MCF10A cells", "experiment": "3D Matrigel culture morphogenesis", "type": "cell-based", "settings": "3D culture"}, "NCI-H1703": {"system": "NCI-H1703", "experiment": "cells", "settings": "Homo sapiens, NCI-H1703, 72 h"}, "R082-W-1": {"system": "R082-W-1", "experiment": "cells", "settings": "Homo sapiens, 72 h"}, "RD-ES": {"system": "RD-ES", "experiment": "cells", "settings": "Homo sapiens, 72 h"}, "JHH-7": {"system": "JHH-7", "experiment": "cells", "settings": "Homo sapiens, JHH7, 72 h"}, "RT4": {"system": "RT4", "experiment": "cells", "settings": "Homo sapiens, RT-4, 72 h"}, "LU99A": {"system": "LU99A", "experiment": "cells", "settings": "Homo sapiens, LU-99A, 72 h"}, "A2.1": {"system": "A2.1", "experiment": "cells", "settings": "Homo sapiens, 72 h"}, "FGFR1": {"biological_target": "FGFR1 (Homo sapiens, UniProt P11362)", "sequence (P11362 22-822)": "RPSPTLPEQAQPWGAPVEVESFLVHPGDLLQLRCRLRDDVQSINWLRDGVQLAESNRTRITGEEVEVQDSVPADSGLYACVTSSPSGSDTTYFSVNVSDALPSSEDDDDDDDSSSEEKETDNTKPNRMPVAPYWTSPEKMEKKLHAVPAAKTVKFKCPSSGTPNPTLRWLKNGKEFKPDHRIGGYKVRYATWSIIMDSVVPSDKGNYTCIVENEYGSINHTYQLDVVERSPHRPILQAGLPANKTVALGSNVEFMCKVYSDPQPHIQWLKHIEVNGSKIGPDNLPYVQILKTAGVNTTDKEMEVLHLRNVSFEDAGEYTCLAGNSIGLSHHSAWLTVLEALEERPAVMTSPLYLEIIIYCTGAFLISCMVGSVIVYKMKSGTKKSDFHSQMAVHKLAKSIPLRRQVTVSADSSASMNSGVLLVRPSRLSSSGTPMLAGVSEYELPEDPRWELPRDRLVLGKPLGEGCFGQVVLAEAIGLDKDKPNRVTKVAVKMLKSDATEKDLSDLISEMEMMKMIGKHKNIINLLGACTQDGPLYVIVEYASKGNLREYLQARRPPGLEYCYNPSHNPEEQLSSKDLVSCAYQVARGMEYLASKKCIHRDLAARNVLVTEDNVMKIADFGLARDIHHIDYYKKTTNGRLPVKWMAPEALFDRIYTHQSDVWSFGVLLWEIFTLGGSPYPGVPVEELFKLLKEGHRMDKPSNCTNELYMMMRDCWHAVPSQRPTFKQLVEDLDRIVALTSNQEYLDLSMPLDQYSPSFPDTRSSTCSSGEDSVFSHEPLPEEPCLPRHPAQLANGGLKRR", "settings": "ref Kammasud et al., 2007; cited from earlier work"}, "AN3CA cells": {"system": "AN3CA cells", "experiment": "Endometrial carcinoma cell proliferation", "settings": "activating FGFR2 mutation; 4 days"}, "V561M FGFR1": {"biological_target": "V561M FGFR1 (Homo sapiens, UniProt P11362, V561M)", "sequence (P11362 22-822 V561M)": "as the sequence (P11362 22-822) above, with V540M counted along it", "settings": "10 μM, 1 hour drug treatment, HEK293"}, "KATO III": {"system": "KATO III", "experiment": "cells", "settings": "Homo sapiens, 72 h"}, "STS-0421": {"system": "STS-0421", "experiment": "cells", "settings": "Homo sapiens, 72 h"}, "MFE-296 cells": {"system": "MFE-296 cells", "experiment": "Endometrial carcinoma cell proliferation", "settings": "activating FGFR2 mutation; 4 days"}},
  "data": [
    {"smiles": "C=CC(=O)Nc1cccc(CN2C(=O)N(c3c(Cl)c(OC)cc(OC)c3Cl)Cc3cnc(NCCCCN(CC)CC)nc32)c1", "note": "[FIIN-1]", "values": [
      {"measurement": "effect on pro-survival Akt and Erk1/2 pathways", "setting": "SNU-16 [1]", "value": "potently suppressed"},
      {"measurement": "effect on growth of wild-type MCF10A cells", "setting": "wild-type MCF10A cells", "value": "neither FIIN-1 nor PD173074 affected the growth"},
      {"measurement": "sensitivity in cell proliferation assay", "setting": "Hec-1B cells", "value": "not sensitive"},
      {"measurement": "EC50", "setting": "H520", "value": 4500, "unit": "nM"},
      {"measurement": "EC50", "setting": "wild-type Ba/F3 cells", "value": "> 10000", "unit": "nM"},
      {"measurement": "IC50", "setting": "FLT1", "value": 661, "unit": "nM"},
      {"measurement": "effect on pro-survival Akt and Erk1/2 pathways", "setting": "KATO-III", "value": "potently suppressed"},
      {"measurement": "EC50", "setting": "G-401", "value": 140, "unit": "nM"},
      {"measurement": "EC50", "setting": "SBC-3 [2]", "value": 80, "unit": "nM"},
      {"measurement": "EC50", "setting": "VM-CUB1", "value": "> 5000", "unit": "nM"},
      {"measurement": "EC50", "setting": "JAR", "value": "> 5000", "unit": "nM"},
      {"measurement": "EC50", "setting": "TOV-112D", "value": "> 5000", "unit": "nM"},
      {"measurement": "EC50", "setting": "G-402", "value": 1650, "unit": "nM"},
      {"measurement": "EC50", "setting": "A2780 [3]", "value": 220, "unit": "nM"},
      {"measurement": "effect on cell survival and survival pathways", "setting": "A2780 [4]", "value": "inhibited"},
      {"measurement": "EC50", "setting": "FU97", "value": 650, "unit": "nM"},
      {"measurement": "effect on cell survival and survival pathways", "setting": "SBC-3 [5]", "value": "inhibited"},
      {"measurement": "EC50", "setting": "SNU-16 [6]", "value": 30, "unit": "nM"},
      {"measurement": "EC50", "setting": "WT iFGFR1 MCF10A cells", "value": 2.7, "unit": "nM"},
      {"measurement": "EC50", "setting": "PA-1", "value": 4600, "unit": "nM"},
      {"measurement": "effect on abnormal morphogenesis induced by iFGFR1 activation", "setting": "[7]; 20 nM", "value": "prevented"},
      {"measurement": "EC50", "setting": "NCI-H1703", "value": "> 5000", "unit": "nM"},
      {"measurement": "EC50", "setting": "R082-W-1", "value": "> 5000", "unit": "nM"},
      {"measurement": "EC50", "setting": "RD-ES", "value": 2300, "unit": "nM"},
      {"measurement": "EC50", "setting": "JHH-7", "value": "> 5000", "unit": "nM"},
      {"measurement": "EC50", "setting": "RT4", "value": 70, "unit": "nM"},
      {"measurement": "EC50", "setting": "LU99A", "value": "> 5000", "unit": "nM"},
      {"measurement": "EC50", "setting": "A2.1", "value": 230, "unit": "nM"}
    ]},
    {"smiles": "COc1cc(OC)cc(-c2ccc3c(c2)NC(=O)/C3=C\\c2[nH]c(C)c(CCC(=O)O)c2C)c1", "note": "[NP603]", "values": [
      {"measurement": "IC50", "setting": "FGFR1", "value": 400, "unit": "nM"}
    ]},
    {"smiles": "CCN(CC)CCCCNc1ncc2cc(-c3cc(OC)cc(OC)c3)c(NC(=O)NC(C)(C)C)nc2n1", "note": "[PD173074, reference compound]", "values": [
      {"measurement": "effect on growth of wild-type MCF10A cells", "setting": "wild-type MCF10A cells", "value": "neither FIIN-1 nor PD173074 affected the growth"},
      {"measurement": "sensitivity in cell proliferation assay", "setting": "Hec-1B cells", "value": "not sensitive"},
      {"measurement": "EC50", "setting": "H520", "value": "> 5000", "unit": "nM"},
      {"measurement": "EC50 (sensitivity in cell proliferation assay)", "setting": "AN3CA cells", "value": "sub-micromolar"},
      {"measurement": "EC50", "setting": "G-401", "value": 210, "unit": "nM"},
      {"measurement": "EC50", "setting": "SBC-3 [2]", "value": 320, "unit": "nM"},
      {"measurement": "EC50", "setting": "VM-CUB1", "value": "> 5000", "unit": "nM"},
      {"measurement": "EC50", "setting": "JAR", "value": "> 5000", "unit": "nM"},
      {"measurement": "inhibition of autophosphorylation of FGFR1-V561M", "setting": "V561M FGFR1", "value": "incapable of inhibiting"},
      {"measurement": "EC50", "setting": "KATO III", "value": 22, "unit": "nM"},
      {"measurement": "EC50", "setting": "TOV-112D", "value": "> 5000", "unit": "nM"},
      {"measurement": "EC50", "setting": "G-402", "value": 2480, "unit": "nM"},
      {"measurement": "EC50", "setting": "A2780 [3]", "value": 820, "unit": "nM"},
      {"measurement": "EC50", "setting": "FU97", "value": 1160, "unit": "nM"},
      {"measurement": "EC50", "setting": "SNU-16 [6]", "value": 120, "unit": "nM"},
      {"measurement": "EC50", "setting": "PA-1", "value": "> 5000", "unit": "nM"},
      {"measurement": "effect on abnormal morphogenesis induced by iFGFR1 activation", "setting": "[7]; 1 μM", "value": "prevented"},
      {"measurement": "EC50", "setting": "NCI-H1703", "value": "> 5000", "unit": "nM"},
      {"measurement": "EC50", "setting": "STS-0421", "value": 120, "unit": "nM"},
      {"measurement": "EC50", "setting": "R082-W-1", "value": 2500, "unit": "nM"},
      {"measurement": "EC50", "setting": "RD-ES", "value": "> 5000", "unit": "nM"},
      {"measurement": "EC50", "setting": "JHH-7", "value": "> 5000", "unit": "nM"},
      {"measurement": "EC50", "setting": "RT4", "value": 50, "unit": "nM"},
      {"measurement": "EC50", "setting": "LU99A", "value": 3000, "unit": "nM"},
      {"measurement": "EC50 (sensitivity in cell proliferation assay)", "setting": "MFE-296 cells", "value": "sub-micromolar"},
      {"measurement": "EC50", "setting": "A2.1", "value": 340, "unit": "nM"}
    ]}
  ]
}
